Measured values as given in patent publication US7977366B2, “Treating an inflammatory disorder or inhibiting respiratory burst in adherent neutrophils with chemical inhibitors of neutrophil activation” (Cornell Research Foundation, Inc., priority 2003, dated 2011).

Legend:
[1] = system: p47phox; experiment: Translocation of p47phox subunit to the cell membrane (western blot of membrane fraction); type: cell-based, human; details: TNF or PMA stimulation
Source text: In an attempt to identify specific steps of the biochemical pathway(s) that are influenced by Comp II, the effect on translocation of phagocyte oxidase (Phox) translocation was examined. Phox is a multi-subunit enzyme complex that generates H2O2 upon activation. Activation of Phox requires an assembly of both membrane associated and cytosolic subunits at the plasma or phagosomal membrane as well as phosphorylation of several subunits. The cytochrome b559 (also known as b558) components of phox (gp91 and gp22) are localized on the membranes of specific granules (Bjerrum et al, “Dual Granule Localization of the Dormant NADPH Oxidase and Cytochrome b559 in Human Neutrophils,” Eur J Haematol 43(1): 67-77 (1989), which is hereby incorporated by reference in its entirety), and recruitment of these subunits to the membrane occurs simultaneously with degranulation. […] The influence of Comp II on the translocation of p47phox subunit, one of the components of NADPH oxidase, to the cell membrane, was examined as follows.
Neutrophil lysates were prepared as above with 2.5% TritonX-100 lysis buffer (final concentration of 1% TritonX-100 after dilution in plate with residual KRPG). The cell lysate was passed through 26-gauge needle six times to shear DNA and centrifuged at 20,000×g for 15 min to remove cell debris and DNA. […]

[2] = system: Pyk2; experiment: TNF-induced phosphorylation of Pyk2 Y402 in neutrophils (western blot); type: cell-based, human
Description: Tissue culture plates (Primaria, Falcon) were coated with 3 ml of FBS in 5% CO2 at 37° C. for at least 1 h and washed twice with 0.9% saline. Isolated human neutrophils (1.5×10^6) were added to each plate containing 4 ml of reaction mixture, incubated with each compound at 37° C. for 30 min, and stimulated with either buffer control or TNF (100 ng/ml). When cells were fully spread (20-40 min), they were treated with 5 mM diisopropylfluorophosphate to inhibit serine proteases and lysed with either 125 μl of SDS lysis buffer (10 mM Tris-HCl, pH 7.6, 150 mM NaCl, 1% SDS, 1 mM PMSF, 1 mM Na pyrophosphate, 1 mM NaF, 1 mM vanadate, 5 μg/ml each of aprotinin, leupeptin, chymostatin, pepstatin A) for western blot, or with 200 μl of non-denaturing modified RIPA buffer (10 mM Tris-HCl, pH 7.6, 150 mM NaCl, 1% Triton-X100, 1 mM PMSF, 1 mM Na pyrophosphate, 1 mM NaF, 1 mM vanadate, 5 μg/ml each of aprotinin, leupeptin, chymostatin, pepstatin A) for immunoprecipitation. The cell lysate was passed through a 26-gauge needle six times to shear DNA and centrifuged at 20,000×g for 15 min to remove cell debris and DNA. The protein concentration was determined using a Bio-Rad (Indianapolis, Ind.) kit. […] After further washing with TBST, bound antibody was detected by enhanced chemiluminescence (Pierce ECL, Amersham Pharmacia, Piscataway, N.J.). […]

What does the source list for `O=C1CC(c2ccccc2)=NN1c1cccc(Cl)c1` [Comp II, 2-(3-Chloro-phenyl)-5-phenyl-2,4-dihydro-pyrazol-3-one]?
activation triggered translocation of phox 47 to the membrane [1]: not inhibited; TNF-induced phosphorylation of Pyk2 Y402 (activation of Pyk2) [2]: did not block
